From US9012223B2, “Methods for enhancing genome stability and telomere elongation in embryonic stem cells” (The United States of America, as represented by the …, priority 2009, dated 2015)

Assays:
Zscan4 [1] = assay: Time-course of Emerald GFP+ (Zscan4+) cells by flow cytometry after retinoid treatment; type: cell-based, mouse; details: for day of peak of fraction of Zscan4+ cells / fraction of Zscan4+ cells / secondary increase of Zscan4+ cells: atRA, 9-cis RA, 13-cis RA 50 nM; for day of peak of fraction of Zscan4+ cells / secondary increase of Zscan4+ cells: vitamin A 5 μM; for fraction of Zscan4+ cells: vitamin A 5 μM final concentration, up to 7 days; for secondary increase of Zscan4+ cells: within 7 days of treatment
Source text: FIG. 9 is a line graph showing the percentage of Emerald cells following treatment of MC1-ZE7 cells in the presence or absence of leukemia inhibitory factor (LIF) and in the presence or absence of retinoic acid (RA). Cells were passaged to gelatin-coated plates in the presence of LIF (LIF+) and absence of atRA (atRA−). The next day (Day 0), the culture medium of each well was changed to four different conditions: LIF+ atRA−, LIF+ atRA+, LIF− atRA−, and LIF− atRA+. The cells were maintained in the same culture medium for 8 days with the medium changes every day, but without passaging. Cells were harvested every day and the number of Emerald GFP^+ cells was measured by flow cytometry.
(§1) FIG. 10A is a line graph showing the effect of different retinoids (atRA, 9-cis RA, 13-cis RA or vitamin A) on the percentage of Zscan4^+ cells in culture. Shown is the percentage of Emerald^+ MC1-ZE-7 cells up to seven days following exposure to the retinoid. FIG. 10B is a line graph showing the effect of the different reintoids on ES cell proliferation.
A 20 mM stock solution of all-trans retinoic acid (atRA) in ethanol was used at a final concentration of 1 μM, 2 μM, or 50 nM. 9-cis RA and 13-cis RA were used at a final concentration of […] final. Vitamin A (retinol) was used at a final concentration of 5 μM.
Zscan4 Expression is Induced Transiently by all-Trans Retinoic Acid (atRA) Mouse ES cells (referred to as pZscan4-Emerald7 (MC1-ZE7) cells) in which a plasmid carrying a green fluorescent protein (Emerald: Em) regulated under the promoter of Zscan4c is integrated in the genome were used in these studies. […] Cells were first passaged to gelatin-coated plates in the presence of leukemia inhibitory factor (LIF+) and absence of atRA (atRA−). The next day (Day 0), the culture medium of each well was changed to four different conditions: LIF+ atRA−, LIF+ atRA+, LIF− atRA−, and LIF− atRA+. The final concentration of atRA was […]. The cells were maintained in the same culture medium for 8 days with medium changes every day, but without passaging. Cells were harvested every day and the number of Emerald GFP^+ cells was measured by flow cytometry (Guava).
(§2) Although atRA is most commonly used for mammalian cell culture systems, there are other retinoids that sometimes have similar activities on the cells. To test other retinoids for Zscan4-inducibility, similar time-course kinetic assays were carried out using atRA (50 nM final concentration), 9-cis RA (50 nM final concentration), 13-cis RA (50 nM final concentration), or vitamin A (5 μM final concentration). […] Zscan4^+ cells may have growth advantages over Zscan4^− cells in the presence of vitamin A and 13-cis RA.

MC1-ZE7 cells = assay: Effect of retinoids on ES cell proliferation; type: cell-based, mouse; details: atRA, 9-cis RA, 13-cis RA 50 nM, vitamin A 5 μM; up to 7 days
Source text: as §1, §2

ES cells = assay: Survival of ES cells after treatment with DNA-damaging agent (live cell count); type: cell-based, mouse; details: then 3 more days
Method: FIGS. 12A and 12B are graphs showing survival of control ES cells (A) and tet-Zscan4 ES cells (B) after treatment with mitomycin C (MMC). Control ES cells contained a control plasmid (tet-Empty). Cells were cultured in standard ES medium (LIF+) and passaged into two groups: (1) in the absence of doxycycline (Dox) or (2) in the presence of Dox at a final concentration of 0.2 μg/ml. The Dox+ and Dox− media were changed every day. On the fourth day, the cells were cultured for 6 hours in the presence of MMC at a final concentration ranging from 0 to 600 ng/ml. MMC was removed from the culture by changing the media and cells were then incubated for 3 more days in the Dox+ medium, with the medium changed every day. Cells were harvested and the number of live cells was counted.
Control cells (carrying the tet-Empty plasmid) and Zscan4-expressing cells (carrying the tet-Zscan4 plasmid) were used in this study. The cells were cultured in standard ES medium (LIF+). Cells were passaged into two groups: (1) in the absence of doxycycline (Dox−), or (2) in the presence of doxycycline (Dox+) at a final concentration of 0.2 μg/ml. The Dox+ and Dox− media were changed every day. On the fourth day, the cells were cultured for 6 hours in the presence of MMC at a final concentration ranging from 0 to 600 ng/ml. […] Cells were harvested and the number of live cells was counted.

Zscan4 [2] = details: MC1-ZE7 cells, LIF+; H2O2 100 μM, 300 μM or 1000 μM; two days
Method: MC1-ZE7 cells were cultured in standard ES cell medium (LIF+). […] The cells were cultured for two days and the fraction of Emerald^+ (i.e., Zscan4^+ cells) was measured by flow cytometry.
MC1-ZE7 cells were cultured in standard ES cell medium (LIF+). […] The cells were cultured for two days and the percentage of Em^+ (i.e., Zscan4^+ cells) was determined by the Guava flow cytometry (Guava).

[3] = MC1-ZE7 cells, atRA 2 M (so in the source), LIF+ and LIF-

Structure (SMILES)	day of peak of fraction of Zscan4+ cells (Zscan4 [1]; MC1-ZE7 cells) [days]	fraction of Zscan4+ cells (Zscan4 [1]; MC1-ZE7 cells)	secondary increase of Zscan4+ cells (Zscan4 [1])	effect on cell proliferation (MC1-ZE7 cells)	survival of Zscan4-expressing (tet-Zscan4) ES cells against the DNA-damaging agent, Dox- versus Dox+ (ES cells; Zscan4 induced by Dox removal, agent for 6 hours)	cell survival rate (ES cells; control (tet-Empty) ES cells, MMC 0 to 600 ng/ml for 6 hours)	decline of Zscan4+ cell induction to basal level (Zscan4 [1]; [3])	time of peak of Em+ (Zscan4+) cell fraction (Zscan4 [1]; [3])	fraction of Em+ cells (i.e., Zscan4+ cells) in the culture (Zscan4 [1]; MC1-ZE7 cells, atRA 2 M (so in the source), LIF+ and LIF- conditions, 8 days, daily harvest)	number (percentage) of Zscan4+ (Em+) cells (Zscan4 [2])
CC1=C(/C=C/C(C)=C\C=C\C(C)=C\C(=O)O)C(C)(C)CCC1 [9-cis RA, 9-cis retinoic acid]	2	transiently increased	not	nearly complete suppression of cell proliferation						
CO[C@@]12[C@H](COC(N)=O)C3=C(C(=O)C(C)=C(N)C3=O)N1C[C@@H]1N[C@@H]12 [MMC, mitomycin C]					increased survival	the higher the dose of MMC, the lower the cell survival rate				
CC1=C(/C=C/C(C)=C/C=C/C(C)=C/C(=O)O)C(C)(C)CCC1 [atRA, all-trans retinoic acid]	2	transiently increased	not	nearly complete suppression of cell proliferation			declined to the basal level by the fourth day	peaked on the second day	dramatically induced	
CC1=C(/C=C/C(C)=C/C=C/C(C)=C/CO)C(C)(C)CCC1 [vitamin A, retinol]	2	transiently increased	observed	did not affect cell proliferation						
CC1=C(/C=C/C(C)=C/C=C/C(C)=C\C(=O)O)C(C)(C)CCC1 [13-cis RA, 13-cis-retinoic acid]	2	transiently increased	observed	moderate suppression of cell proliferation						
OO [H2O2, Hydrogen peroxide]										increases the number of Zscan4^+ cells
